US20220402948A1, “EGFR INHIBITOR, COMPOSITION AND PREPARATION METHOD THEREFOR” (BETTA PHARMACEUTICALS CO., LTD., priority 2019, published 2022)

Key:
A431 = A431 cell proliferation assay (CellTiter Glo, 72 hours); type: cell-based; settings: Homo sapiens, A-431, 72 h, cell proliferation, A431, 72 hours, Table 2; read-out: A431 IC50
Outline: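 Luminescence (CellTiter-Glo) after 72 h treatment gives viability, fitted by nonlinear regression to yield IC50. Cells seeded at 2000 per well; nine 3-fold concentrations from 1000 nM, DMSO final 0.1% (0.5% for certain compounds).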

[1] = target: Ba/F3 cells with EGFR Δ19del/T790M/C797S mutation gene stably overexpressed (Homo sapiens, UniProt P00533, T790M/C797S, cells depend on it, form not given); assay: Ba/F3-Δ19del/T790M/C797S cell proliferation assay (CellTiter Glo, 72 hours); type: cell-based; settings: Table 2, read-out: EGFR Δ19del/T790M/C797S IC50
Outline: (§1)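 Ba/F3 cells stably overexpressing wild-type EGFR or EGFR Δ19del/T790M/C797S were seeded at 2000 cells/well and incubated 72 h with compound. Viability was read by CellTiter-Glo luminescence, and IC50 came from a four-parameter logistic fit of signal against log concentration.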

EGFRΔ19del/T790M/C797S = EGFRΔ19del/T790M/C797S (Homo sapiens, UniProt P00533, T790M/C797S, form not given); assay: EGFR Δ19del/T790M/C797S kinase test (mobility variation analysis, Caliper EZ Reader); type: biochemical; settings: kinase enzymatic activity, Table 1
Outline: (§2)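 Read-out is substrate-to-product conversion by mobility shift, stopped after incubation at room temperature with ATP and substrate, following a 10-minute room-temperature compound–enzyme pre-incubation. IC50 obtained by four-parameter variable-slope fitting of inhibition normalized between enzyme-free and uninhibited controls.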

EGFR WT = EGFR WT (Homo sapiens, UniProt P00533); assay: EGFR WT kinase test (mobility variation analysis, Caliper EZ Reader); type: biochemical; settings: kinase enzymatic activity, Table 1
Outline: as §2

IGF1R = IGF1R (Homo sapiens, UniProt P08069); assay: IGF1R kinase test (mobility variation analysis, Caliper EZ Reader); type: biochemical; settings: kinase enzymatic activity, Table 1; read-out: EGFR IGF1R IC50
Outline: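 Mobility-shift readout of substrate conversion, normalised to positive (no compound) and negative (no kinase) controls, gives % inhibition and IC50 by four-parameter fit. Compounds, 3-fold dilutions over 10 concentrations starting at 3000 nM, preincubated 10 min with kinase before ATP/substrate start; room temperature.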

[2] = target: Ba/F3-EGFR wild-type cell line (Homo sapiens, UniProt P00533); assay: Ba/F3-EGFR wild-type cell proliferation assay (CellTiter Glo, 72 hours); type: cell-based; settings: Table 2, read-out: EGFR WT IC50
Outline: as §1

Chain of Ba/F3-EGFR wild-type cell line (P00533 whole entry, change not shown): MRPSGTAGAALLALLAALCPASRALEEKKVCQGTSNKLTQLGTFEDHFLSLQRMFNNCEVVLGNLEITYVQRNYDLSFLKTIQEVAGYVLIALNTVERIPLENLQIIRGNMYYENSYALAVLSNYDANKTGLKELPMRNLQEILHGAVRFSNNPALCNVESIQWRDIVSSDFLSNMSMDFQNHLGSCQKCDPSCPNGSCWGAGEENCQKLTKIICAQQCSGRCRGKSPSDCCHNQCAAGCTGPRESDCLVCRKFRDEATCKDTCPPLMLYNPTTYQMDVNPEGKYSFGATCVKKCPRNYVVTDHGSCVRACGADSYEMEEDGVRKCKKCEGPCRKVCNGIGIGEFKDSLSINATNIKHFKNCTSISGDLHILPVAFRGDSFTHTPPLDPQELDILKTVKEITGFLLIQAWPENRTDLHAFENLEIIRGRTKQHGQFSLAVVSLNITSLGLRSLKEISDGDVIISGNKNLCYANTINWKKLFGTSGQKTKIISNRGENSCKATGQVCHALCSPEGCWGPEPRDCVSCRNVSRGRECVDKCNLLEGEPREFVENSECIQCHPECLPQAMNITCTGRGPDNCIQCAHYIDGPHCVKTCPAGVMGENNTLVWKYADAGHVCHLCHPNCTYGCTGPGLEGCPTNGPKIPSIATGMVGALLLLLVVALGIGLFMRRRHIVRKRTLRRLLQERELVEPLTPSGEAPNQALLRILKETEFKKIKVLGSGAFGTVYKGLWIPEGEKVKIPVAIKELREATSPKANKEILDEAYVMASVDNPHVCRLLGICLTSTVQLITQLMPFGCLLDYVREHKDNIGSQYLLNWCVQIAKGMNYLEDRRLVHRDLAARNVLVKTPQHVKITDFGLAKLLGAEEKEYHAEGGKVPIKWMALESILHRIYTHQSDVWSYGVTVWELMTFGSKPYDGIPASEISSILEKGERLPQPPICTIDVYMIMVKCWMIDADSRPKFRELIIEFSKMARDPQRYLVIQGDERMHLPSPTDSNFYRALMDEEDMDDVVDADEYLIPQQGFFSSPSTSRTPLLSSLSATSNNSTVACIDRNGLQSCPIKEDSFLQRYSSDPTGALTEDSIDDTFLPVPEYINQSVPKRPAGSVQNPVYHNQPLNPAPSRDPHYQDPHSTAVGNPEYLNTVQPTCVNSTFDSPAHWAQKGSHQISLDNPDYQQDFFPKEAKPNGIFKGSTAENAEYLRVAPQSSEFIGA
Chain of Ba/F3 cells with EGFR Δ19del/T790M/C797S mutation gene stably overexpressed (P00533 with tags, fused parts or gaps DEL746-750/T790M/C797S, form open): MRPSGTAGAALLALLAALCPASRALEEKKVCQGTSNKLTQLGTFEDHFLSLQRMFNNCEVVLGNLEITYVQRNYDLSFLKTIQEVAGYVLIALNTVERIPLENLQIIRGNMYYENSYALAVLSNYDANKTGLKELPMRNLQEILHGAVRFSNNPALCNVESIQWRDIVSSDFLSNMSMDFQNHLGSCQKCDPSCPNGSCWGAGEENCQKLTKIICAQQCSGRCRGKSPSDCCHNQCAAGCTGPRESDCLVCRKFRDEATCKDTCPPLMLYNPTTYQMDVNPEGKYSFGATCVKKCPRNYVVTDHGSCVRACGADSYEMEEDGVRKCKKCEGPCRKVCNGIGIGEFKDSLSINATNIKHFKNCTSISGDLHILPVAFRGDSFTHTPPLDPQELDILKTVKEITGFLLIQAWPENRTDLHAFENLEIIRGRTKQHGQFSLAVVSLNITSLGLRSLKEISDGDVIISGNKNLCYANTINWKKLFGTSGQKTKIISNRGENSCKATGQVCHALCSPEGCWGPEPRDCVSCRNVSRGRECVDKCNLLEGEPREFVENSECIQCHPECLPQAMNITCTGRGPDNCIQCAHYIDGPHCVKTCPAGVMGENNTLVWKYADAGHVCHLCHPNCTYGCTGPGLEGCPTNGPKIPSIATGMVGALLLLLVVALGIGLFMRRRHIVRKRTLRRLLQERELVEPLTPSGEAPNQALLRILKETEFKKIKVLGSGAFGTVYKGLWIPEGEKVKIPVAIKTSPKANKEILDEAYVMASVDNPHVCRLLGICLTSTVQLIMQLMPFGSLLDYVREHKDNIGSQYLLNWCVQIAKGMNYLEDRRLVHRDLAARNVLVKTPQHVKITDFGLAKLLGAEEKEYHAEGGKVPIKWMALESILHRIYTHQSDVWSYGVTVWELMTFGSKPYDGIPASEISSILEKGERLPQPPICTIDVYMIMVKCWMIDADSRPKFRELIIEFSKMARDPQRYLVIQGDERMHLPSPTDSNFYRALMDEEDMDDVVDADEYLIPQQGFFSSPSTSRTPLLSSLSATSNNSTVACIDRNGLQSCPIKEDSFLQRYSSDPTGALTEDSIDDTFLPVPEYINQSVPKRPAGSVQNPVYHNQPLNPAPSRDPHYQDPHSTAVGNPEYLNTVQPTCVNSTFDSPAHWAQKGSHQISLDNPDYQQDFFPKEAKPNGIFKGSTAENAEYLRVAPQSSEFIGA
Chain of EGFRΔ19del/T790M/C797S (P00533 with tags, fused parts or gaps DEL746-750/T790M/C797S, form open): as above
Chain of EGFR WT (P00533 25-1210): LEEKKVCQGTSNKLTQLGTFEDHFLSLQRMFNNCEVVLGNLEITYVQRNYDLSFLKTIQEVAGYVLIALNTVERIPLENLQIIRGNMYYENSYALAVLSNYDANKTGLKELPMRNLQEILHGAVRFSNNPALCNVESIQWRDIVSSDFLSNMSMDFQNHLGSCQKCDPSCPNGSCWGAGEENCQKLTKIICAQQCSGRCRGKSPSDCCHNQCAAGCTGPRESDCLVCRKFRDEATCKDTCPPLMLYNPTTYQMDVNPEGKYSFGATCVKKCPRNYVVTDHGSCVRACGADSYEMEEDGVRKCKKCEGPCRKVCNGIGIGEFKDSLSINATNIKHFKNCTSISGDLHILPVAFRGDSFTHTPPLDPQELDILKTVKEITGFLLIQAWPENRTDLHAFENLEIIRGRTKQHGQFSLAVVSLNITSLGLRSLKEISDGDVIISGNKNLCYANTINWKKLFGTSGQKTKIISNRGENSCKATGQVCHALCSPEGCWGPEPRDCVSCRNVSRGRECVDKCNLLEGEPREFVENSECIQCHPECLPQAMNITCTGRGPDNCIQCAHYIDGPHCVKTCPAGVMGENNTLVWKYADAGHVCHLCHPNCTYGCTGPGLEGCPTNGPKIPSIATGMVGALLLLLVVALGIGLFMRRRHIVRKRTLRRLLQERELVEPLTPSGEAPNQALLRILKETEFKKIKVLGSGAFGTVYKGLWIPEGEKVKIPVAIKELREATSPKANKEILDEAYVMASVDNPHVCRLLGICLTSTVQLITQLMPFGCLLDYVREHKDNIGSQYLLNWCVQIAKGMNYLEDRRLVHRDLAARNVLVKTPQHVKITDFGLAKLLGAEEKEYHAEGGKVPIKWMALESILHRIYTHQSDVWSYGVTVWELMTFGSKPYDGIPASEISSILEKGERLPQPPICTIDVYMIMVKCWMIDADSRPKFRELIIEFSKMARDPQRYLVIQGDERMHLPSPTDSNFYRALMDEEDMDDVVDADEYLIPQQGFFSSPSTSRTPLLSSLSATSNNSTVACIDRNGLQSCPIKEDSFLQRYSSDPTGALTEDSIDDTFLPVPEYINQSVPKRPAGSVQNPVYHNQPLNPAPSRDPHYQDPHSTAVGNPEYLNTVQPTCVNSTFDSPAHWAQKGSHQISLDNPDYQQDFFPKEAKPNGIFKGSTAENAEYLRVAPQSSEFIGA

SMILES | IC50 (A431) [nM] | GI50 [1] [nM] | IC50 (EGFRΔ19del/T790M/C797S) [nM] | IC50 (EGFR WT) [nM] | IC50 (IGF1R) [nM] | GI50 [2] [nM]
C#Cc1cncc(-c2ccc(Nc3nc(Nc4cc(CC)c(N5CCC(N6CCN(C)CC6)CC5)cc4OC)ncc3Br)c(P(C)(C)=O)c2)n1 [Compound K-013, (2-((5-Bromo-2-((5-ethyl-2-methoxy-4-(4-(4-methylpiperazin-1-yl)piperidin-1-yl)phenyl)amino)pyrimidin-4-yl)amino)-5-(6-ethynylpyrazin-2-yl)phenyl)dimethylphosphine oxide] | 1420 | 15.2 | 0.3 | 22.1 | 166 | 70
C#Cc1cnc(-c2ccc(Nc3nc(Nc4cc(OC)c(N5CCC(N6CCN(C)CC6)CC5)cc4C)ncc3Br)c(P(C)(C)=O)c2)cn1 [Compound K-014, (2-((5-Bromo-2-((5-methoxy-2-methyl-4-(4-(4-methylpiperazin-1-yl)piperidin-1-yl)phenyl)imino)pyrimidin-4-yl)amino)-5-(5-ethynylpyrazin-2-yl)phenyl)dimethylphosphine oxide] | 816 | 7.6 | 0.5 | 32.5 | 50.5 | 56
COc1cc(Nc2ncc(Br)c(Nc3ccc(-c4cnn(C)n4)cc3P(C)(C)=O)n2)c(C)cc1N1CCOCC1 [Compound K-015, (2-((5-Bromo-2-((5-methoxy-2-methyl-4-morpholinophenyl)amino)pyrimidin-4-yl)amino)-5-(2-methyl-2H-1,2,3-triazol-4-yl)phenyl)dimethylphosphine oxide] | 953 | 13.6 | 0.2 | 27.4 | 56.6 | 178
C#Cc1ccc(-c2ccc(Nc3nc(Nc4cc(C)c(N5CCC(N6CCN(C)CC6)CC5)cc4OC)ncc3Br)c(P(C)(C)=O)c2)s1 [Compound K-016, (2-((5-Bromo-2-((2-methoxy-5-methyl-4-(4-(4-methylpiperazin-1-yl)piperidin-1-yl)phenyl)amino)pyrimidin-4-yl)amino)-5-(5-ethynylthiophen-2-yl)phenyl)dimethylphosphine oxide] | 497 | 15.3 | 0.5 | 13.1 | 94 | 145
COc1cc(Nc2ncc(Br)c(Nc3ccc(-c4cnccn4)cc3P(C)(C)=O)n2)c(C)cc1N1CCC(N2CCN(C)CC2)CC1 [Compound K-017, (2-((5-Bromo-2-((5-methoxy-2-methyl-4-(4-(4-methylpiperazin-1-yl)piperidin-1-yl)phenyl)amino)pyrimidin-4-yl)amino)-5-(pyrazin-2-yl)phenyl)dimethylphosphine oxide] | 812 | 12 | 0.5 | 14.4 | 39.1 | 445
COc1cnn(-c2ccc(Nc3nc(Nc4cc(OC)c(N5CCC(N6CCN(C)CC6)CC5)cc4C)ncc3Br)c(P(C)(C)=O)c2)c1 [Compound K-018, (2-((5-Bromo-2-((5-methoxy-2-methyl-4-(4-(4-methylpiperazin-1-yl)piperidin-1-yl)phenyl)amino)pyrimidin-4-yl)amino)-5-(4-methoxy-1H-pyrazol-1-yl)phenyl)dimethylphosphine oxide] | 1060 | 9.7 | 0.2 | 17.1 | 67.2 | 295
COc1cc(Nc2ncc(Br)c(Nc3ccc(-c4nccs4)cc3P(C)(C)=O)n2)c(C)cc1N1CCC(N2CCN(C)CC2)CC1 [Compound K-019, (2-((5-Bromo-2-((5-methoxy-2-methyl-4-(4-(4-methylpiperazin-1-yl)piperidin-1-yl)phenyl)amino)pyrimidin-4-yl)amino)-5-(thiazol-2-yl)phenyl)dimethylphosphine oxide] | 535 | 16 | 0.2 | 14.7 | 33.1 | 48.7
CCc1cc(Nc2ncc(Br)c(Nc3ccc(-n4cc(OC)cn4)cc3P(C)(C)=O)n2)c(OC)cc1N1CCC(N2CCCCC2)CC1 [Compound K-020] | 1130 | 9.2 | 0.3 | 22 | 126 | 226
COc1cc(Nc2ncc(Br)c(Nc3ccc(-c4cnn(C)n4)cc3P(C)(C)=O)n2)c(C)cc1N1CCC(N2CCOCC2)CC1 [Compound K-021, (2-((5-Bromo-2-((5-methoxy-2-methyl-4-(4-morpholinopiperidin-1-yl)phenyl)amino)pyrimidin-4-yl)amino)-5-(2-methyl-2H-1,2,3-triazol-4-yl)phenyl)dimethylphosphine oxide] | 3870 | 2.3 | 0.3 | 8.4 | 21.6 | 84
COc1cc(Nc2ncc(Br)c(Nc3ccc(-c4cnccn4)cc3P(C)(C)=O)n2)c(C)cc1N1CCOCC1 [Compound K-022] | 1460 | 16.5 | 0.2 | 31.8 | 52.5 | 281
COc1cnn(-c2ccc(Nc3nc(Nc4cc(OC)c(N5CCOCC5)cc4C)ncc3Br)c(P(C)(C)=O)c2)c1 [Compound K-023, (2-((5-Bromo-2-((5-methoxy-2-methyl-4-morpholinophenyl)amino)pyrimidin-4-yl)amino)-5-(4-methoxy-1H-pyrazol-1-yl)phenyl)dimethylphosphine oxide] | 1280 | 5 | 0.2 | 41.5 | 136 | 89.5
COc1cc(Nc2ncc(Br)c(Nc3ccc(-c4nccs4)cc3P(C)(C)=O)n2)c(C)cc1N1CCOCC1 [Compound K-024, (2-((5-Bromo-2-((5-methoxy-2-methyl-4-morpholinophenyl)amino)pyrimidin-4-yl)amino)-5-(thiazol-2-yl)phenyl)dimethylphosphine oxide] | 601 | 15.6 | 0.3 | 35 | 71.1 | 172
COc1cc(Nc2ncc(Br)c(Nc3ccc(-c4cnn(C)n4)c(F)c3P(C)(C)=O)n2)c(C)cc1N1CCOCC1 [Compound K-025, (6-((5-Bromo-2-((5-methoxy-2-methyl-4-morpholinophenyl)amino)pyrimidin-4-yl)amino)-2-fluoro-3-(2-methyl-2H-1,2,3-triazol-4-yl)phenyl)dimethylphosphine oxide] | > 10000 | 12.6 | 0.23 | 39 | 69 | 220
COc1cnn(-c2ccc(Nc3nc(Nc4cc(OC)c(N5CCOCC5)cc4C4CC4)ncc3Br)c(P(C)(C)=O)c2)c1 [Compound K-026, (2-((5-Bromo-2-((2-cyclopropyl-5-methoxy-4-morpholinophenyl)amino)pyrimidin-4-yl)amino)-5-(4-methoxy-1H-pyrazol-1-yl)phenyl)dimethylphosphine oxide] | > 10000 | 17.3 | 0.6 | 188 | 413 | 946
COc1cc(N2CCOCC2)c(C#N)cc1Nc1ncc(Br)c(Nc2ccc(-c3nccs3)cc2P(C)(C)=O)n1 [Compound K-027, 5-((5-Bromo-4-((2-(dimethylphosphineoxide)-4-(thiazol-2-yl)phenyl)amino)pyrimidin-2-yl)amino)-4-methoxy-2-morpholinobenzonitrile] | 4050 | 12.9 | 0.6 | 50.2 | 364 | 453
COc1cnn(-c2ccc(Nc3nc(Nc4cc(OC)c(N5CCN(C)CC5)cc4C)ncc3Br)c(P(C)(C)=O)c2)c1 [Compound K-028, (2-((5-Bromo-2-((5-methoxy-2-methyl-4-(4-methylpiperazin-1-yl)phenyl)amino)pyrimidin-4-yl)amino)-5-(4-methoxy-1H-pyrazol-1-yl)phenyl)-dimethylphosphine oxide] | 1240 | 5.7 | 0.1 | 26 | 39.1 | 226
COc1cc(N2CCN(C)CC2)c(C)cc1Nc1ncc(Br)c(Nc2ccc(-c3nccs3)cc2P(C)(C)=O)n1 [Compound K-029, (2-((5-Bromo-2-((2-methoxy-5-methyl-4-(4-methylpiperazin-1-yl)phenyl)amino)pyrimidin-4-yl)amino)-5-(thiazol-2-yl)phenyl)dimethylphosphine oxide] | 3180 | 15.2 | 0.3 | 60.6 | 91 | 52.1
